The assay has as its target Histone deacetylase. Kind of assay: In vitro residual activity against Histone deacetylase (HDAC) at 1 uM concentration.

The residual activity is the activity still measured, relative to the control. A high value points to a small loss of activity.

For the compound `O=C(CCCCC(=O)NCCCCN(Cc1ccccc1-c1ccccc1)Cc1ccccc1-c1ccccc1)NO`, the residual activity turned out to be 96.3%.
The same measure for `Br.O=C(CCCCC(=O)NCCCNCCCCNCCC(c1ccccc1)c1ccccc1)NO`: 80.2%; for `Br.CC(C)(C)c1ccc(CNCCCCNCCCNC(=O)CCCCC(=O)O)cc1`: 98.5%.
The same measure for `CN(C)c1ccc(CNCCCCNC(=O)CCCCC(=O)NO)cc1.O=C(O)C(F)(F)F`: 89.7%; for `Cc1ccc(CNCCCCNC(=O)CCCCCCC(=O)NO)cc1.O=C(O)C(F)(F)F`: 46.8%; for `CN(C)c1ccc(CN(CCCCN)C(=O)CCCCCCC(=O)NO)cc1.O=C(O)C(F)(F)F`: 84.4%.
The same measure for `Br.CC(C)(C)c1ccc(CNCCCCNCCCNC(=O)CCCCCCC(=O)NO)cc1`: 50.6%; for `Br.O=C(CCCCC(=O)NCCCNCCCNCCCNCCCNCC1CCCCCC1)NO`: 59%.
As for `Cc1ccc(CNCCCCNC(=O)CCCCC(=O)NO)cc1`, the residual activity was determined as 55.8%.
The same measure for `O=C(CCCCC(=O)NCCCCNCc1ccccc1-c1ccccc1)NO`: 83.7%; for `CN(C)c1ccc(CNCCCCNC(=O)CCCCCCC(=O)NO)cc1.O=C(O)C(F)(F)F`: 66.1%.
To `Br.O=C(CCCCCCC(=O)NCCCNCCCCNCCC(c1ccccc1)c1ccccc1)NO` belongs 26.1%.
To `Br.CC(C)(C)c1ccc(CNCCCCNCCCNC(=O)CCCCC(=O)NO)cc1` belongs 25.1%; to `Br.CN(C)c1ccc(CN(CCCNCCCCN)C(=O)CCCCC(=O)NO)cc1`, 40%.

(Values after ChEMBL document CHEMBL1141108, “Alkyl-substituted polyaminohydroxamic acids: a novel class of targeted histone deacetylase inhibitors” (J Med Chem, 2005).)
